Test results from ChEMBL document CHEMBL1201862, “PubChem BioAssay data set” (2004).
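Interpolation was linear, between the two tested concentrations surrounding the appropriate level; five concentrations were tested over 48 hours in 96-well plates. GI50 marks 50% less growth.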 Activity calls are given as the source filed them. Cut-off read from the data, not from the text of the source: active = GI50 up to about 1.1 µM and inactive = higher.

Experiments:
Experiment in all cases: NCI tumour cell line growth inhibition, 48 h
786-0 = tested on: 786-0
BT-549 = tested on: BT-549
CCRF-CEM = tested on: CCRF-CEM
DU-145 = tested on: DU-145
EKVX = tested on: EKVX
HCT-15 = tested on: HCT-15
HL-60 = tested on: HL-60
HOP-62 = tested on: HOP-62
HOP-92 = tested on: HOP-92
MDA-MB-231 = tested on: MDA-MB-231
MDA-N = tested on: MDA-N
Malme-3M = tested on: Malme-3M
NCI/ADR-RES = tested on: NCI/ADR-RES
OVCAR-3 = tested on: OVCAR-3
OVCAR-8 = tested on: OVCAR-8
RPMI-8226 = tested on: RPMI-8226
SF-295 = tested on: SF-295
SK-MEL-2 = tested on: SK-MEL-2
SNB-75 = tested on: SNB-75
T47D = tested on: T47D

SMILES | GI50 (786-0) | GI50 (BT-549) | GI50 (CCRF-CEM) | GI50 (DU-145) | GI50 (EKVX) | GI50 (HCT-15) [µM] | GI50 (HL-60) | GI50 (HOP-62) | GI50 (HOP-92) | GI50 (MDA-MB-231) | GI50 (MDA-N) | GI50 (Malme-3M) | GI50 (NCI/ADR-RES) | GI50 (OVCAR-3) | GI50 (OVCAR-8) | GI50 (RPMI-8226) | GI50 (SF-295) | GI50 (SK-MEL-2) | GI50 (SNB-75) | GI50 (T47D)
CC(C)(C)OC(=O)C(C1NC(C(=O)O)C(C)(C)S1)N1C(=O)c2ccccc2C1=O (centres undefined) | > 100 µM (inactive) | > 100 µM (inactive) | > 100 µM (inactive) | > 100 µM (inactive) | > 100 µM (inactive) | > 100 | > 100 µM (inactive) | > 100 µM (inactive) | > 100 µM (inactive) | > 100 µM (inactive) | > 100 µM (inactive) | > 100 µM (inactive) | > 100 µM (inactive) | > 100 µM (inactive) | > 100 µM (inactive) | > 100 µM (inactive) | > 100 µM (inactive) | > 100 µM (inactive) | > 100 µM (inactive) | > 100 µM (inactive)
COC1=CC(=O)C(C2CC(=O)c3c(O)cc(O)cc3O2)=CC1=O (centres undefined) | 13.1 µM (inactive) | 19.8 µM (inactive) | 0.658 µM (active) | 19 µM (inactive) | 16.6 µM (inactive) | 23.3 | 2 µM (inactive) | 17.1 µM (inactive) | 7.55 µM (inactive) | 12.2 µM (inactive) | 15.6 µM (inactive) | 19.1 µM (inactive) | 21.7 µM (inactive) | 18.5 µM (inactive) | 25.9 µM (inactive) | 10.9 µM (inactive) | 19.2 µM (inactive) | 17.4 µM (inactive) | 23.6 µM (inactive) | 14.4 µM (inactive)
c1ncc(C23C4C5C6C4C2C6C53)[nH]1 (centres undefined) | > 100 µM (inactive) | > 100 µM (inactive) | > 100 µM (inactive) | > 100 µM (inactive) | > 100 µM (inactive) | > 100 | > 100 µM (inactive) | > 100 µM (inactive) | > 100 µM (inactive) | > 100 µM (inactive) | > 100 µM (inactive) | > 100 µM (inactive) | > 100 µM (inactive) | > 100 µM (inactive) | > 100 µM (inactive) | > 100 µM (inactive) | > 100 µM (inactive) | > 100 µM (inactive) | > 100 µM (inactive) | > 100 µM (inactive)
CCOC(=O)C1(C(=O)OCC)CC(=O)[C@@]2(C1)OCC[C@H]1OC(=O)C[C@H]12 | > 100 µM (inactive) | > 100 µM (inactive) | > 100 µM (inactive) | > 100 µM (inactive) | > 100 µM (inactive) | > 100 | > 100 µM (inactive) | > 100 µM (inactive) | > 100 µM (inactive) | > 100 µM (inactive) | > 100 µM (inactive) | > 100 µM (inactive) | > 100 µM (inactive) | > 100 µM (inactive) | > 100 µM (inactive) | > 100 µM (inactive) | > 100 µM (inactive) | > 100 µM (inactive) | > 100 µM (inactive) | > 100 µM (inactive)
CC1=CC(O)CC(C)(C)C1/C=C/C(C)=C/C=C/C(C)=C/C=C/C=C(C)/C=C/C=C(C)/C=C/C1=C(C)CC(O)CC1(C)C (centres undefined) | 19.1 µM (inactive) | 17.8 µM (inactive) | 26.2 µM (inactive) | 7.43 µM (inactive) | 79.3 µM (inactive) | 19.7 | 51.6 µM (inactive) | – | 21.4 µM (inactive) | 13.5 µM (inactive) | 18.7 µM (inactive) | 15.6 µM (inactive) | 24.5 µM (inactive) | 17.3 µM (inactive) | 19.7 µM (inactive) | 28.2 µM (inactive) | 23.9 µM (inactive) | 25 µM (inactive) | 26.5 µM (inactive) | 20 µM (inactive)
COc1ccc(-c2c(-c3ccccc3)c(C)c3ccccn23)cc1 | > 100 µM (inactive) | > 100 µM (inactive) | 28.2 µM (inactive) | > 100 µM (inactive) | 99.5 µM (inactive) | 56.9 | 48.4 µM (inactive) | > 100 µM (inactive) | > 100 µM (inactive) | > 100 µM (inactive) | 70.1 µM (inactive) | 95.9 µM (inactive) | > 100 µM (inactive) | > 100 µM (inactive) | > 100 µM (inactive) | 47.6 µM (inactive) | > 100 µM (inactive) | 33 µM (inactive) | > 100 µM (inactive) | 22.8 µM (inactive)
